Assay results taken from ChEMBL document CHEMBL2203080, “Synthesis and biological evaluation of colchicine C-ring analogues tethered with aliphatic linkers suitable for prodrug derivatisation” (Bioorg Med Chem Lett, 2012).

Legend:
DLD-1 = assay: Cytotoxicity against human DLD1 cells assessed as growth inhibition; assay type: functional, cell-based
[1] = Cytotoxicity against multidrug-resistant human A2780AD cells overexpressing p-gp assessed as growth inhibition; assay type: functional, cell-based; settings: A2780 ADR
A2780 [2] = assay: Resistance factor, ratio of IC50 for multidrug-resistant human A2780AD cells overexpressing p-gp to IC50 for human A2780 cells; assay type: functional
HeLa [3] = assay: Resistance factor, ratio of IC50 for human HeLa cells harboring class 3 beta tubulin mutant to IC50 for human HeLa cells; assay type: functional
HeLa [4] = assay: Cytotoxicity against human HeLa cells harboring class 3 beta tubulin mutant assessed as growth inhibition; assay type: functional, cell-based
A2780 [5] = assay: Cytotoxicity against human A2780 cells assessed as growth inhibition; assay type: functional, cell-based
HeLa [6] = assay: Cytotoxicity against human HeLa cells assessed as growth inhibition; assay type: functional, cell-based

SMILES	IC50 (DLD-1)	IC50 [1]	Ratio IC50 (A2780 [2])	Ratio IC50 (HeLa [3])	IC50 (HeLa [4])	IC50 (A2780 [5])	IC50 (HeLa [6])
COc1cc2c(c(OC)c1OC)-c1ccc(NCCN3CCC[C@H]3CO)c(=O)cc1[C@@H](NC(C)=O)CC2	> 10000 nM	–	–	–	–	–	–
COc1cc2c(c(OC)c1OC)-c1ccc(NCCO)c(=O)cc1[C@@H](NC(C)=O)CC2	69.2 nM	241 nM	3.3	0.85	164 nM	71.1 nM	192 nM
COc1cc2c(c(OC)c1OC)-c1ccc(NCCCCCCN)c(=O)cc1[C@@H](NC(C)=O)CC2	> 10000 nM	–	–	–	–	–	–
CNCCNc1ccc2c(cc1=O)[C@@H](NC(C)=O)CCc1cc(OC)c(OC)c(OC)c1-2	130 nM	784 nM	1.6	0.95	554 nM	502 nM	586 nM
COc1cc2c(c(OC)c1OC)-c1ccc(NCCN3CCCC(O)C3)c(=O)cc1[C@@H](NC(C)=O)CC2 (mixture of isomers)	8100 nM	–	–	–	–	–	–
CC(=O)O[C@H]1C(=O)[C@@]2(C)[C@H]([C@H](OC(=O)c3ccccc3)[C@]3(O)C[C@H](OC(=O)[C@H](O)[C@@H](NC(=O)c4ccccc4)c4ccccc4)C(C)=C1C3(C)C)[C@]1(OC(C)=O)CO[C@@H]1C[C@@H]2O [PACLITAXEL]	–	> 1000 nM	–	–	11.2 nM	1100 nM	–
COc1cc2c(c(OC)c1OC)-c1ccc(OC)c(=O)cc1[C@@H](NC(C)=O)CC2 [COLCHICINE]	45.5 nM	16.8 nM	2.5	1.2	9.7 nM	6.7 nM	8.2 nM
COc1cc2c(c(OC)c1OC)-c1ccc(NCCN)c(=O)cc1[C@@H](NC(C)=O)CC2	900 nM	–	–	–	–	–	–
COc1cc2c(c(OC)c1OC)-c1ccc(NCCCCCCN3CCCC(O)C3)c(=O)cc1[C@@H](NC(C)=O)CC2 (mixture of isomers)	> 10000 nM	–	–	–	–	–	–
COc1cc2c(c(OC)c1OC)-c1ccc(NCCN3CCC[C@@H]3CO)c(=O)cc1[C@@H](NC(C)=O)CC2	> 10000 nM	–	–	–	–	–	–
COc1cc2c(c(OC)c1OC)-c1ccc(NCCN(C)C(=O)OC(C)(C)C)c(=O)cc1[C@@H](NC(C)=O)CC2	> 10000 nM	–	–	–	–	–	–
